The values below come from patent US10316028B2, “Orexin receptor antagonists” (Heptares Therapeutics Limited, priority 2012, dated 2019).

Where two headings read alike, the source gives them in different places.

The target of assay [1] is T1, cortical orexin-2 receptors (Rattus norvegicus, UniProt P56719).
T1 construct: from tissue; host or cells: rat brain cortex sections (Sprague Dawley)
T1 sequence (P56719 1-460): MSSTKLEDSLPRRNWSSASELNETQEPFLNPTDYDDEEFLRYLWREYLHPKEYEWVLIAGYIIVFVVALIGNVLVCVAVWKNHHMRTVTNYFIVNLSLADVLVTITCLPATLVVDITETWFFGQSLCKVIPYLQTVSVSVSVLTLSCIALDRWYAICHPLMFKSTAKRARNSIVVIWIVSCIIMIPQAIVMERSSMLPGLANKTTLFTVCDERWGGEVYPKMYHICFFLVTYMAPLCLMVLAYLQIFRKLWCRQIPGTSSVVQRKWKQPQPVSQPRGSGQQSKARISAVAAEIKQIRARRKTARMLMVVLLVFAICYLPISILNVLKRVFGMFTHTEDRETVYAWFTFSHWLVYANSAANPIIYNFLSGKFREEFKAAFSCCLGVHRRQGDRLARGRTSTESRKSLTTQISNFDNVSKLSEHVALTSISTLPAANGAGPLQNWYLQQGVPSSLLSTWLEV
The experiment in a line: Ex vivo orexin-2 receptor occupancy. Format: in vivo. To be noted: for ED50: po. As to the method:
Ex Vivo Orexin-2 Receptor Occupancy
Male Sprague Dawley rats were dosed orally with either vehicle, example 145, (0.3-10 mg/kg po) or example 100, (1 mg/kg, po). Vehicle for example 145 was 90% PEG400/10% Tween-80; for example 100 10% DMAC+10% Solutol+80% (10% HPβCD in water). 1 h post-dose, animals were sacrificed and brains removed. A coronal block containing the cortex was rapidly frozen in isopentane for sectioning and autoradiography. 20 μm thick sections were mounted onto slides and incubated with [^3H]EMPA (total binding) or [^3H]EMPA and 1 μM TCS OX2 29 (non-specific binding) for 20 min at rt. Binding was terminated by aspiration and washing with ice-cold assay buffer and allowed to air dry. Levels of bound radioactivity in the sections were determined using a beta imager over a 16 h period. Occupancy was determined as mean specific binding with the vehicle treated control taken as 100%.

In a further assay the test system is rat CT18 sleep model. Description: Rat telemetered sleep study (rat CT18 sleep model). It counts as in vivo. The following applies: male CD rats. As to the method:
Rat Telemetered Sleep Study
Example 100 was assessed for activity in a rat CT18 sleep model. Adult male CD rats (250-300 g) were implanted with telemetric probes fixed to the skull to record cortical electroencephalogram (EEG), and with telemetric probes fixed to the skeletal muscles of the neck to record electromyogram (neck EMG), and allowed to recover for 3 weeks to re-establish normal sleep patterns. Rats were administered with example 100 (3, 10 and 30 mg/kg, po) or vehicle (80% v/v PEG400, 20% v/v Cremophor EL, 2 ml/kg) at Circadian Time (CT) 18, six hours after lights off. EEG and neck EMG traces were recorded for 5 hours after treatment and analysed to determine time spent awake and in NREM sleep and REM sleep.

In another assay the target is T2, human Orexin-2 receptor (Homo sapiens, UniProt O43614).
T2 construct: expressed in transfected cells; host or cells: HEK293 cells (transient transfection, Genejuice); membranes
T2 sequence (O43614 1-444): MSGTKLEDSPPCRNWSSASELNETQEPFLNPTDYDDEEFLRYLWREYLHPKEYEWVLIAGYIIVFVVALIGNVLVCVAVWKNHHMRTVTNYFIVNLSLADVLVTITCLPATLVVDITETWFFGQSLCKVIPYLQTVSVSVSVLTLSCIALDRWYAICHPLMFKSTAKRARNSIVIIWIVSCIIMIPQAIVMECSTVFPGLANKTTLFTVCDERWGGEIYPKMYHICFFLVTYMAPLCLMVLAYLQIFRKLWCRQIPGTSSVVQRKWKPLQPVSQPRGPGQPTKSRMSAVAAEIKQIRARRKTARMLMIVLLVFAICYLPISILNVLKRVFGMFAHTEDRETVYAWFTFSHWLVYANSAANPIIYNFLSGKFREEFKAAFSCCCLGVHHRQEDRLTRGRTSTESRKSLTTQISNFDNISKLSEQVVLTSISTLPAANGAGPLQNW
The experiment in a line: 3H-EMPA radioligand binding assay. To be noted: 3H-EMPA displacement, membranes of HEK293 cells transfected with human Orexin-2 receptor; KI by Cheng-Prussoff; read-out: OX2 pKi ave (converted). In short, it runs like this:
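Membranes from HEK293 cells transiently transfected with human orexin-2 receptor cDNA, assayed with [3H]EMPA. Bound ligand collected on PEI-treated GF/B filters and counted by scintillation; IC50 from inhibition curves, Ki by Cheng-Prusoff.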

In a further assay the test system is preclinical sleep models. The following applies: in vivo; cited from earlier work.
Assay [2] concerns patients with primary insomnia. The following applies: Phase II; cited from earlier work.
Assay [3] has as its system primary insomnia patients. The following applies: Phase IIb study; cited from earlier work.
[4] abbreviates: 3 mg/kg po at CT18, ANOVA over 3 hours post-treatment.

A word on the ED50: it is the dose at which the effect has come halfway, by size or by number of responders. As to `COc1cc(N2C(=O)N(Cc3c(F)cc(F)cc3F)c3ncccc3S2(=O)=O)cnc1OC` [Example 100, 2-(5,6-Dimethoxypyridin-3-yl)-4-(2,4,6-trifluorobenzyl)-2H-pyrido[2,3-e][1,2,4]thiadiazin-3(4H)-one 1,1-dioxide], in assay [1] (rat, inferred from 57% occupancy at 1 mg/kg, read-out: ED50 value of orexin-2 receptor occupancy (suggested from single dose)), the ED50 was below 1 mg/kg. The compound further registered a receptor occupancy at 1 mg/kg in assay [1] (rat, male Sprague Dawley rats, 1 mg/kg po, 1 h post-dose) of 57%. Besides, in the assay with rat CT18 sleep model (setting [4]), the NREM sleep entry was “statistically significant increases”, the REM sleep entry is listed as “statistically significant increases” and the time spent awake result is given as “statistically significant decrease”. The Ki at human Orexin-2 receptor was 2.45 nM.
For `COc1cc(N2C(=O)N(Cc3c(F)cc(F)cc3F)c3ccccc3S2(=O)=O)cnc1OC` [Example 145, 2-(5,6-Dimethoxypyridin-3-yl)-4-(2,4,6-trifluorobenzyl)-2H-1,2,4-benzothiadiazin-3(4H)-one 1,1-dioxide], in assay [1] (male Sprague Dawley rats, 0.3-10 mg/kg po, 1 h post-dose), the “occupancy of cortical orexin-2 receptors, dose dependence” value is “dose dependent manner”. The 50% effective dose (ED50) in assay [1] (rat, male Sprague Dawley rats, 0.3-10 mg/kg, 1 h post-dose, estimated, read-out: ED50 of cortical orexin-2 receptor occupancy) was 5.8 mg/kg. Also, the Ki at human Orexin-2 receptor was 4.68 nM.
As for `COc1cc(N2C(=O)N(Cc3c(F)cc(F)cc3Cl)c3ncccc3S2(=O)=O)cc(OC)n1` [Example 180, 4-(2-Chloro-4,6-difluorobenzyl)-2-(2,6-dimethoxypyridin-4-yl)-2H-pyrido[2,3-e][1,2,4]thiadiazin-3(4H)-one 1,1-dioxide], the Ki on human Orexin-2 receptor was 2.04 nM.
Same read-out and setting: the figure for `CNc1cc(N2C(=O)N(Cc3c(F)cc(OC)cc3F)c3ccccc3S2(=O)=O)cnc1OC` [Example 181, 4-(2,6-difluoro-4-methoxybenzyl)-2-[6-methoxy-5-(methylamino)pyridin-3-yl]-2H-1,2,4-benzothiadiazin-3(4H)-one 1,1-dioxide] is 1.62 nM; for `COc1cc(F)c(CN2C(=O)N(c3ccc4ncsc4c3)S(=O)(=O)c3cccnc32)c(F)c1` [Example 182, 2-(1,3-Benzothiazol-6-yl)-4-(2,6-difluoro-4-methoxybenzyl)-2H-pyrido[2,3-e][1,2,4]thiadiazin-3(4H)-one 1,1-dioxide] it is 4.47 nM.
As for `COc1cc(OC)nc(N2C(=O)N(Cc3c(F)cc(OC)cc3F)c3ccccc3S2(=O)=O)c1` [Example 183, 4-(2,6-difluoro-4-methoxybenzyl)-2-(4,6-dimethoxypyridin-2-yl)-2H-1,2,4-benzothiadiazin-3(4H)-one 1,1-dioxide], on human Orexin-2 receptor, the Ki is 2.75 nM.
Still for that read-out and setting: in the case of `CNc1ncc(N2C(=O)N(Cc3c(F)cc(OC)cc3F)c3ncccc3S2(=O)=O)cc1C` [Example 184, 4-(2,6-Difluoro-4-methoxybenzyl)-2-[5-methyl-6-(methylamino)pyridin-3-yl]-2H-pyrido[2,3-e][1,2,4]thiadiazin-3(4H)-one 1,1-dioxide] it was 8.51 nM; in that of `COc1cc(N2C(=O)N(Cc3c(F)cc(F)cc3Cl)c3ncccc3S2(=O)=O)cnc1OC` [Example 185, 4-(2-Chloro-4,6-difluorobenzyl)-2-(5,6-dimethoxypyridin-3-yl)-2H-pyrido[2,3-e][1,2,4]thiadiazin-3(4H)-one 1,1-dioxide], 4.17 nM; in that of `CNc1cc(N2C(=O)N(Cc3c(F)cc(OC)cc3F)c3ncccc3S2(=O)=O)cnc1OC` [Example 186, 4-(2,6-Difluoro-4-methoxybenzyl)-2-[6-methoxy-5-(methylamino)pyridin-3-yl]-2H-pyrido[2,3-e][1,2,4]thiadiazin-3(4H)-one 1,1-dioxide], 1.26 nM.
Consider `Cc1ccc(-c2ncccn2)c(C(=O)N2C[C@H](COc3ccc(F)cn3)CC[C@H]2C)c1` [MK-6096], for which the “efficacy in preclinical sleep models” value with preclinical sleep models is listed as “shows efficacy”.
Take `CNC(=O)[C@@H](c1ccccc1)N1CCc2cc(OC)c(OC)cc2[C@@H]1CCc1ccc(C(F)(F)F)cc1` [almorexant]: the sleep efficiency result in assay [2] is on record as “dose-dependently increased”.
`Cc1ccc(-n2nccn2)c(C(=O)N2CCN(c3nc4cc(Cl)ccc4o3)CC[C@H]2C)c1` [suvorexant]: the sleep efficiency result in assay [3] was “increased”.
With `Cc1ccc(-c2nc3ccc(C)cn3c2CC(=O)N(C)C)cc1` [zolpidem, reference compound], in the assay on rat CT18 sleep model (positive control, CT18), the NREM latency result is “decrease”, the NREM sleep result is recorded as “increase” and the time spent awake result is reported as “decrease”.
